Assay results taken from ChEMBL document CHEMBL1268922, “Xiamycin, a pentacyclic indolosesquiterpene with selective anti-HIV activity from a bacterial mangrove endophyte” (Bioorg Med Chem Lett, 2010).
pIC50: −log10 of the molar value. Converted amounts (≈) assume the structure as drawn. The source made the active and inactive calls. The rule behind the calls is not given here.

Experiments:
Mycolicibacterium vaccae = experiment: Antimicrobial activity against Mycobacterium vaccae IMET 10670 at 50 ug after 24 hrs by paper disk method; format: functional; conditions: IMET 10670, 24 h, read-out: IZ
Pseudomonas aeruginosa [1] = experiment: Antimicrobial activity against Pseudomonas aeruginosa K799/61 at 50 ug after 24 hrs by paper disk method; format: functional; conditions: K799/61, 24 h, read-out: IZ
Staphylococcus aureus [2] = experiment: Antimicrobial activity against Staphylococcus aureus SG 511 at 50 ug after 24 hrs by paper disk method; format: functional; conditions: SG 511, 24 h, read-out: IZ
[3] = Antitumor activity against human UXF 1138L by modified propidium iodide assay; format: functional
[4] = test system: Sporobolomyces salmonicolor; experiment: Antimicrobial activity against Sporobolomyces salmonicolor SBUG 549 at 50 ug after 24 hrs by paper disk method; format: functional, organism-based
Bacillus subtilis = experiment: Antimicrobial activity against Bacillus subtilis ATCC 6633 at 50 ug after 24 hrs by paper disk method; format: functional; conditions: ATCC 6633, 24 h, read-out: IZ
Pseudomonas aeruginosa [5] = experiment: Antimicrobial activity against Pseudomonas aeruginosa SG137/B7 at 50 ug after 24 hrs by paper disk method; format: functional, organism-based
[6] = Antitumor activity against human MAXF 401NL by modified propidium iodide assay; format: functional
[7] = Antitumor activity against human PAXF 1657L by modified propidium iodide assay; format: functional
Penicillium chrysogenum = experiment: Antimicrobial activity against Penicillium notatum JP36 at 50 ug after 24 hrs by paper disk method; format: functional, organism-based
CWR22R = experiment: Antitumor activity against human 22Rv1 by modified propidium iodide assay; format: functional, cell-based
[8] = Antitumor activity against human PXF 1752L by modified propidium iodide assay; format: functional
Staphylococcus aureus [9] = experiment: Antimicrobial activity against Staphylococcus aureus 134/94 R9 at 50 ug after 24 hrs by paper disk method; format: functional; conditions: 134/94 R9, 24 h, read-out: IZ
[10] = Antitumor activity against human OVXF 899L by modified propidium iodide assay; format: functional
[11] = Antitumor activity against human LXFA 629L by modified propidium iodide assay; format: functional
[12] = Antitumor activity against human RXF 486L by modified propidium iodide assay; format: functional
[13] = Antitumor activity against human MEXF 462NL by modified propidium iodide assay; format: functional
HT-29 = experiment: Antitumor activity against human HT-29 by modified propidium iodide assay; format: functional, cell-based
Candida albicans = experiment: Antimicrobial activity against Candida albicans at 50 ug after 24 hrs by paper disk method; format: functional, organism-based
[14] = Antitumor activity against human LXFL 529L by modified propidium iodide assay; format: functional
Escherichia coli = experiment: Antimicrobial activity against Escherichia coli SG458 at 50 ug after 24 hrs by paper disk method; format: functional, organism-based
Enterococcus faecalis = experiment: Antimicrobial activity against Enterococcus faecalis 1528 R10 at 50 ug after 24 hrs by paper disk method; format: functional; conditions: 1528 R10, 24 h, read-out: IZ
[15] = Antitumor activity against human GXF251L by modified propidium iodide assay; format: functional
[16] = test system: Human immunodeficiency virus 1; experiment: Inhibition of HIV1 NL4-3 replication in CD4-CCR5 expressing human TZM-bl cells assessed as decrease in p24 antigen production; format: functional, organism-based
[17] = test system: Human immunodeficiency virus 1; experiment: Inhibition of HIV1 NL4-3 replication in CD4-CXCR4 expressing human TZM-bl cells assessed as decrease in p24 antigen production; format: functional, organism-based
HeLa = experiment: Antiproliferative activity against human HeLa cells; format: functional
K562 = experiment: Antiproliferative activity against human K562 cells; format: functional
L929 = experiment: Antiproliferative activity against mouse L929 cells; format: functional

Row | SMILES | zone of inhibition at 50 µg/disc (Mycolicibacterium vaccae) | zone of inhibition at 50 µg/disc (Pseudomonas aeruginosa [1]) | zone of inhibition at 50 µg/disc (Staphylococcus aureus [2]) | pIC50 [3] | Activity [4] | zone of inhibition at 50 µg/disc (Bacillus subtilis) | Activity (Pseudomonas aeruginosa [5]) | pIC50 [6] | pIC50 [7] | Activity (Penicillium chrysogenum) | pIC50 (CWR22R) | pIC50 [8] | zone of inhibition at 50 µg/disc (Staphylococcus aureus [9]) | pIC50 [10] | pIC50 [11] | pIC50 [12] | pIC50 [13] | pIC50 (HT-29) | Activity (Candida albicans) | pIC50 [14] | other results
1 | COC(=O)[C@]1(C)[C@@H](O)CC[C@]2(C)c3cc4c(cc3CC[C@@H]12)[nH]c1ccccc14 | 14 mm | 15 mm | 15 mm | 5.07 | inactive | 13.5 mm | inactive | 4.97 | 4.91 | Active | 5.01 | 4.89 | 14 mm | 4.93 | 5.07 | 4.95 | 5.02 | 5.00 | inactive | 5.00 | Activity (Escherichia coli): inactive; zone of inhibition at 50 µg/disc (Enterococcus faecalis): 12 mm; pIC50 [15]: 5.12
2 | C[C@@]1(C(=O)O)[C@@H](O)CC[C@]2(C)c3cc4c(cc3CC[C@@H]12)[nH]c1ccccc14 [XIAMYCIN] | 14 mm | 15 mm | 15 mm | < 4.52 | inactive | 13.5 mm | inactive | < 4.52 | < 4.52 | Active | < 4.52 | < 4.52 | 14 mm | < 4.52 | < 4.52 | < 4.52 | < 4.52 | < 4.52 | inactive | < 4.52 | inhibition [16]: Active; inhibition [17]: Active; CC50 (HeLa): 44.3 µg/mL (≈ 122 µM); GI50 (K562): 36.7 µg/mL (≈ 101 µM); Activity (Escherichia coli): inactive; GI50 (L929): 49.8 µg/mL (≈ 137 µM); zone of inhibition at 50 µg/disc (Enterococcus faecalis): 12 mm; pIC50 [15]: 4.52
